The text below walks through data of ChEMBL document CHEMBL5223163, “In the Quest for Potent and Selective Malic Enzyme 3 Inhibitors for the Treatment of Pancreatic Ductal Adenocarcinoma” (ACS Med Chem Lett, 2023).

Data set [1] has as its target NAD-dependent malic enzyme, mitochondrial (Homo sapiens, UniProt P23368). Briefly: Inhibition of His-tagged human recombinant full length ME2 using L-malate and beta-NAD+ as substrate preincubated with enzyme for 5 mins followed by beta-NAD+ challenge and incubated under shaking for 5 mins followed by incubation for 2 hrs without shaking by resorufin dye based fluorescence analysis.

Data set [2] concerns the target T1, NADP-dependent malic enzyme, mitochondrial (Homo sapiens, UniProt Q16798).
T1 sequence (Q16798 whole entry): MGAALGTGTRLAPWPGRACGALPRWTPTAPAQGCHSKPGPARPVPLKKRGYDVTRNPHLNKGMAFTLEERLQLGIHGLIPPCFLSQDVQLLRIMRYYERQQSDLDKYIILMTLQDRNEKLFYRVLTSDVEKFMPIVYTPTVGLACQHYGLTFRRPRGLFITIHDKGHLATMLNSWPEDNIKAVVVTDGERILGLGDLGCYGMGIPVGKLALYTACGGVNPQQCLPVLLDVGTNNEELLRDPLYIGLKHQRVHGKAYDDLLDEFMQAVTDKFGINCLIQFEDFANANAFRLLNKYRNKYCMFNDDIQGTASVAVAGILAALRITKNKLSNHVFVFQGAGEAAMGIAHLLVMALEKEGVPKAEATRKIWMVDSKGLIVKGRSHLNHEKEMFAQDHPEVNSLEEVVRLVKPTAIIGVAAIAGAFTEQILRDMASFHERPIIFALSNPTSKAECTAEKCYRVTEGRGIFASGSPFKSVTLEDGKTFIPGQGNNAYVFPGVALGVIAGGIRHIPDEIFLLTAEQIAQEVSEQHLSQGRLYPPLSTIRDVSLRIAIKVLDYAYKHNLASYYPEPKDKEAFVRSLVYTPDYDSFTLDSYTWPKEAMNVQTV
Description: (§1) Inhibition of His-tagged human recombinant ME3 (26 to 604 residues) using L-malate and beta-NADP+ as substrate preincubated with enzyme for 5 mins followed by beta-NADP+ challenge and incubated under shaking for 5 mins followed by incubation for 3 hrs without shaking by resorufin dye based fluorescence analysis

Data set [3] deals with T2, NADP-dependent malic enzyme (Homo sapiens, UniProt P48163).
T2 sequence (P48163 whole entry): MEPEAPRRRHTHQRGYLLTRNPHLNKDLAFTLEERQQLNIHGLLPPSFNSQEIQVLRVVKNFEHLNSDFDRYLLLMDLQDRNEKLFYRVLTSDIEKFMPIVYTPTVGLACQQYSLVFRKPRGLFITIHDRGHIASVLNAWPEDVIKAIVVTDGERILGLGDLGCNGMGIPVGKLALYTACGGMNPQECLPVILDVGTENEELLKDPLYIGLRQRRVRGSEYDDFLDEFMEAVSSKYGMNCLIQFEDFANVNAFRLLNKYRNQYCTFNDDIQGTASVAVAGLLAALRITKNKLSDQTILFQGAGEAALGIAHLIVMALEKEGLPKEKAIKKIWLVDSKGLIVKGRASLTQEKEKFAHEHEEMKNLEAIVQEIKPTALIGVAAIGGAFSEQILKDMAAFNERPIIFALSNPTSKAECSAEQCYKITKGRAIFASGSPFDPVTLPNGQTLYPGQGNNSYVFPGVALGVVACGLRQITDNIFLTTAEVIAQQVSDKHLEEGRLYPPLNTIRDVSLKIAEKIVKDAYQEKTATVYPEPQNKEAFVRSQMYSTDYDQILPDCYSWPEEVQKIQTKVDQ
The data set is described as follows: Inhibition of His-tagged human recombinant full length ME1 using L-malate and beta-NADP+ as substrate preincubated with enzyme for 5 mins followed by beta-NADP+ challenge and incubated under shaking for 5 mins followed by incubation for 2 hrs without shaking by resorufin dye based fluorescence analysis.

The target in data set [4] is T1, NADP-dependent malic enzyme, mitochondrial. This is another data set of the same source.
Description: as §1
The nature of data set [5]: Selectivity for SMAD4/ME2-null human BXPC-3 cells over human HCE-T cells.
Data set [6] is described as follows: Lipophilicity, log P of the compound. To be noted: octanol/water. Type of data set: physicochemical.
The test system of data set [7] is BXPC-3. Briefly: cells. The note with it: Homo sapiens, BXPC-3, 72 h.
Description: Antiproliferative activity against SMAD4/ME2-null human BXPC-3 cells assessed as inhibition of cell growth incubated for 72 hrs by CellTiter-Glo luminescence assay
Data set [8] has as its system BXPC-3. Briefly: cells. To be noted: Homo sapiens, BXPC-3, 72 h, read-out: INH.
Description: Antiproliferative activity against SMAD4/ME2-null human BXPC-3 cells assessed as inhibition of cell growth at 10 uM incubated for 72 hrs by CellTiter-Glo luminescence assay
The nature of data set [9]: Cytotoxicity against human HCE-T cells assessed as inhibition of cell growth. In kind it is toxicity, cell-based.
The next data set has as its system HUVEC. Briefly: Cytotoxicity against human HUVEC cells assessed as inhibition of cell growth. Type of data set: toxicity, cell-based.
For data set [10], the target named is T3, NADP-dependent malic enzyme, mitochondrial (Homo sapiens) (UniProt Q16798).
T3 sequence (whole entry): T1 sequence (Q16798 whole entry)
The note with it: BXPC-3, Lysates, dose 100.0 µM, time 2.0 hrs.

In data set [11] the target is T3, NADP-dependent malic enzyme, mitochondrial (Homo sapiens). To be noted: BXPC-3, dose 100.0 µM, time 24.0 hrs.

NAD-dependent malic enzyme, mitochondrial, sequence (P23368 whole entry): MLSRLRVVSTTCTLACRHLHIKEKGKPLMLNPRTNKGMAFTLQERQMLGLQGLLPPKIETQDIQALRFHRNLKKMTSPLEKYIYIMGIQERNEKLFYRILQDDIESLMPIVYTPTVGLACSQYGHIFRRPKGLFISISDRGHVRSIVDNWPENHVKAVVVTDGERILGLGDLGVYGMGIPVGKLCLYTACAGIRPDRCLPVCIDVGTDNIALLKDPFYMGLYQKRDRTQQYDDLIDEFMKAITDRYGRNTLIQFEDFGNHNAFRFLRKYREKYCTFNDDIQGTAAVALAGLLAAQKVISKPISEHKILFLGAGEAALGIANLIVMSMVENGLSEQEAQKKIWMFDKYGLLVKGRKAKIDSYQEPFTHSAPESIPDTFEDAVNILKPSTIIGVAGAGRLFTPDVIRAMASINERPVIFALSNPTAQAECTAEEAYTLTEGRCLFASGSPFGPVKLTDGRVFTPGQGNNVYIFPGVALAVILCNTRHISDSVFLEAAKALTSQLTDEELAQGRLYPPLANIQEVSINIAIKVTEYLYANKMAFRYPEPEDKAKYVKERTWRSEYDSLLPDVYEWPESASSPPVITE

By IC50 is commonly meant the point on the concentration scale where inhibition reaches its midpoint. For the compound `O=C(CCc1ccccc1)N1CCN(c2ncc(O)cn2)CC1`, the IC50 result in data set [1], in [2] and in [3] was “Not Active” throughout.

As a reminder, the logP is the decadic logarithm of the partition coefficient of the neutral form, usually between octanol and water. Regarding `CC(C)(CC(=O)N1CCN(c2ccc(O)cn2)CC1)c1ccccc1`, the IC50 in data set [4] was 0.15 µM; in data set [1] (read-out: IC50), 1.37 µM; in the data set with BXPC-3 [7] it was 3.5 µM; in [9] it was over 30 µM; in data set [3] (read-out: IC50), 2.37 µM. In addition, in [5], the Selectivity ratio stood at 5. The compound further gave a logP in data set [6] of 3.41. In addition, in the data set with BXPC-3 [8], the inhibition at 10 µM is 99%.

`CC(C)(CC(=O)N1CCN(c2ccc(O)cc2)CC1)c1ccccc1`: the IC50 in data set [4] is 0.12 µM; in data set [1] (read-out: IC50), 0.27 µM; with BXPC-3 [7], 5.2 µM; in data set [9] it was over 30 µM; in data set [3] (read-out: IC50), 0.15 µM. The Selectivity ratio in data set [5] is recorded as 5. Besides, the inhibition at 10 µM with BXPC-3 [8] is 85%. In addition, the Activity result in the data set with HUVEC is “Non-Toxic”.

As usually defined, the ΔTm is the change in melting temperature against a reference sample. For the compound `O=C(CCc1ccccc1)N1CCN(c2ccc(O)cn2)CC1`, the half-maximal inhibitory concentration (IC50) in data set [4] was 0.23 µM; in data set [1] (read-out: IC50), 1.72 µM; with BXPC-3 [7] it was 5.1 µM; in data set [9], over 30 µM; in data set [3] (read-out: IC50) it was 1.5 µM. Also, the ΔTm was determined as 7 °C in [10] and 4.9 °C in data set [11]. Besides, in [5], the Selectivity ratio came out at 5. In the data set with BXPC-3 [8], the inhibition at 10 µM was determined as 90%. In the data set with HUVEC, the Activity result is reported as “Non-Toxic”.

In the case of `O=C(Cc1ccccc1)N1CCN(c2ccc(O)nn2)CC1`, the IC50 entry in [1], in data set [2] and in data set [3] was “Not Active” in each case.

With `O=C(Cc1ccccc1)N1CCN(c2ccc(O)nc2)CC1`, the IC50 entry in data set [1], in data set [2] and in data set [3] was “Not Active” in each case.
